# Source: patent US20060009493A1, “Indolinone hydrazides as c-Met inhibitors” (Sugen, Inc., priority 2003, published 2006)
# Target: T1, GST fusion protein containing the Met kinase domain (Homo sapiens, UniProt P08581)
# T1 construct: Purified GST fusion protein containing the Met kinase domain, Sugen, Inc
# Assay: MET Transphosphorylation Assay (ELISA, poly(Glu,Tyr) 4:1 substrate)
# Format: biochemical
# Conditions: met transphosphorylation of poly(glutamic acid:tyrosine 4:1) substrate; two values in a cell separated by '/'
# In short: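 Poly(Glu-Tyr)-coated wells received the GST-Met kinase domain (10 ng/well) with compound in DMSO for 15 minutes. The reaction was started with ATP/MnCl2 in HEPES pH 7.5 buffer with vanadate, run 5 minutes, and stopped with EDTA. Phosphotyrosine was detected by anti-pTyr antibody, HRP secondary and ABTS/H2O2.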
# T1 sequence (P08581 1078-1345 limits assumed): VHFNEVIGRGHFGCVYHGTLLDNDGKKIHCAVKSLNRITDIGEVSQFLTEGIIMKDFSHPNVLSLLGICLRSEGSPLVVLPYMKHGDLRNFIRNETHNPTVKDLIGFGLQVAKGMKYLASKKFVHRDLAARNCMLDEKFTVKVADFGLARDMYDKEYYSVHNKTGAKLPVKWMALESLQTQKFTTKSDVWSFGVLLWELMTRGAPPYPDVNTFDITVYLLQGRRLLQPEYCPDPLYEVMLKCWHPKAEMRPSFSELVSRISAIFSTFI
row,IC50,SMILES
1,6.16 µM,"CC(C(=O)N/N=C1\C(=O)Nc2ccc(NC(=O)CN3CCCC3)cc21)c1ccc(F)cc1 (stereo not shown) [Example I-55, N-((3Z)-3-{[2-(4-Fluoro-phenyl)-propionyl]-hydrazono}-2-oxo-2,3-dihydro-1H-indol-5-yl)-2-pyrrolidin-1-yl-acetamide]"
2,> 20 µM,"O=C(Cc1c[nH]c(=O)[nH]c1=O)N/N=C1\C(=O)Nc2ccccc21 [II-90, (2,4-Dioxo-1,2,3,4-tetrahydro-pyrimidin-5-yl)-acetic acid [(3Z)-2-oxo-1,2-dihydro-indol-3-ylidene]-hydrazide]"
3,0.09 µM,"O=C(Cc1ccccc1)N/N=C1\C(=O)Nc2c(Cl)ccc(Cl)c21 [II-75, Phenyl-acetic acid [(3Z)-4,7-dichloro-2-oxo-1,2-dihydro-indol-3-ylidene]-hydrazide]"
4,0.39 µM,"CC(C(=O)N/N=C1\C(=O)Nc2ccc(S(=O)(=O)NCCN3CCOCC3)cc21)c1ccc(O)cc1 (stereo not shown) [Example I-27, (3Z)-3-{[2-(4-Hydroxy-phenyl)-propionyl]-hydrazono}-2-oxo-2,3-dihydro-1H-indole-5-sulfonic acid (2-morpholin-4-yl-ethyl)-amide]"
5,> 20 µM,"O=C(Cc1ccc(O)cc1)N/N=C1\C(=O)Nc2cccc(C3CCNCC3)c21 [Example I-18, (4-Hydroxy-phenyl)-acetic acid [(3Z)-2-oxo-4-piperidin-4-yl-1,2-dihydro-indol-3-ylidene]-hydrazide]"
6,0.054 µM,"O=C(Cc1ccc(O)c(Br)c1)N/N=C1\C(=O)Nc2ccccc21 [II-101, (3-Bromo-4-hydroxy-phenyl)-acetic acid [(3Z)-2-oxo-1,2-dihydro-indol-3-ylidene]-hydrazide]"
7,0.11 µM,"O=C(Cc1ccc2c(c1)OCO2)N/N=C1\C(=O)Nc2c(Cl)ccc(Cl)c21 [Example I-24, Benzo[1,3]dioxol-5-yl-acetic acid [(3Z)-4,7-dichloro-2-oxo-1,2-dihydro-indol-3-ylidene]-hydrazide]"
8,0.096 µM,"O=C(Cc1ccc(O)cc1)N/N=C1\C(=O)Nc2ccc([N+](=O)[O-])cc21 [II-62, (4-Hydroxy-phenyl)-acetic acid [(3Z)-5-nitro-2-oxo-1,2-dihydro-indol-3-ylidene]-hydrazide]"
9,> 20 µM,"O=C(Cc1cc(=O)[nH]c(=O)[nH]1)N/N=C1\C(=O)Nc2c(Cl)ccc(Cl)c21 [II-82, (2,6-Dioxo-1,2,3,6-tetrahydro-pyrimidin-4-yl)-acetic acid [(3Z)-4,7-dichloro-2-oxo-1,2-dihydro-indol-3-ylidene]-hydrazide]"
10,> 20 µM,"CS(=O)(=O)c1ccc(CC(=O)N/N=C2\C(=O)Nc3ccccc32)cc1 [Example I-21, (4-Methanesulfonyl-phenyl)-acetic acid [(3Z)-2-oxo-1,2-dihydro-indol-3-ylidene]-hydrazide]"
11,0.32 µM,"COc1c(O)c2c(c(Cl)c1Cl)NC(=O)/C2=N\NC(=O)Cc1ccc(O)cc1 [II-97, (4-Hydroxy-phenyl)-acetic acid [(3Z)-6,7-dichloro-4-hydroxy-5-methoxy-2-oxo-1,2-dihydro-indol-3-ylidene]-hydrazide]"
12,0.79 µM,"CC(C(=O)N/N=C1\C(=O)Nc2c(Cl)ccc(Cl)c21)c1ccc(O)c(Br)c1 (stereo not shown) [II-104, 2-(3-Bromo-4-hydroxy-phenyl)-propionic acid [(3Z)-4,7-dichloro-2-oxo-1,2-dihydro-indol-3-ylidene]-hydrazide]"
13,1.3 µM,"O=C(Cc1ccc(O)nc1)N/N=C1\C(=O)Nc2ccc(C(=O)N3CCC[C@@H]3CNC3CC3)c(Cl)c21 [Example I-45, (6-Hydroxy-pyridin-3-yl)-acetic acid [(3Z)-4-chloro-5-[(2R)-2-cyclopropylaminomethyl-pyrrolidine-1-carbonyl]-2-oxo-1,2-dihydro-indol-3-ylidene]-hydrazide]"
14,12.6 µM,"O=C(Cc1cnc(=O)[nH]c1)N/N=C1\C(=O)Nc2ccccc21 [II-89, (2-Oxo-1,2-dihydro-pyrimidin-5-yl)-acetic acid [(3Z)-2-oxo-1,2-dihydro-indol-3-ylidene]-hydrazide]"
15,3.34 µM,"N#Cc1cc(CC(=O)N/N=C2\C(=O)Nc3ccc(C(=O)O)c(Cl)c32)ccc1O [II-111, (3Z)-4-Chloro-3-{[2-(3-cyano-4-hydroxy-phenyl)-acetyl]-hydrazono}-2-oxo-2,3-dihydro-1H-indole-5-carboxylic acid]"
16,0.023 µM,"Cc1ccc2c(c1Br)/C(=N/NC(=O)Cc1ccc(O)cc1)C(=O)N2 [II-53, (4-Hydroxy-phenyl)-acetic acid [3Z)-(4-bromo-5-methyl-2-oxo-1,2-dihydro-indol-3-ylidene]-hydrazide]"
17,1.77 µM,"O=C(Cc1ccc(O)c(O)c1)N/N=C1\C(=O)Nc2ccccc21 [II-41, (3,4-Dihydroxy-phenyl)-acetic acid [(3Z)-2-oxo-1,2-dihydro-indol-3-ylidene]-hydrazide]"
18,> 20 µM,"Cc1ccc(CC(=O)N/N=C2\C(=O)Nc3ccccc32)cc1 [II-11, p-Tolyl-acetic acid [(3Z)-2-oxo-1,2-dihydro-indol-3-ylidene]-hydrazide]"
19,> 20 µM,"O=C(Cn1ccc(=O)[nH]c1=O)N/N=C1\C(=O)Nc2c(Cl)ccc(Cl)c21 [II-72, (2,4-Dioxo-3,4-dihydro-2H-pyrimidin-1-yl)-acetic acid [(3Z)-4,7-dichloro-2-oxo-1,2-dihydro-indol-3-ylidene]-hydrazide]"

row,IC50,SMILES
1,0.078 µM,"O=C(Cc1ccc(O)cc1)N/N=C1\C(=O)Nc2ccc(S(=O)(=O)NCCN3CCOCC3)cc21 [Example I-26, (3Z)-3-{[2-(4-Hydroxy-phenyl)-acetyl]-hydrazono}-2-oxo-2,3-dihydro-1H-indole-5-sulfonic acid (2-morpholin-4-yl-ethyl)-amide]"
2,2 µM,"COc1ccc(CCC(=O)N/N=C2\C(=O)Nc3c(Cl)ccc(Cl)c32)cc1 [II-86, 3-(4-Methoxy-phenyl)-propionic acid [(3Z)-4,7-dichloro-2-oxo-1,2-dihydro-indol-3-ylidene]-hydrazide]"
3,0.026 µM,"O=C(Cc1ccc(O)c(Cl)c1)N/N=C1\C(=O)Nc2ccc(C(=O)N3CCC(NC4CC4)CC3)c(Cl)c21 [Example I-38, (3-Chloro-4-hydroxy-phenyl)-acetic acid [(3Z)-4-chloro-5-(4-cyclopropylamino-piperidine-1-carbonyl)-2-oxo-1,2-dihydro-indol-3-ylidene]-hydrazide]"
4,0.036 µM,O=C(Cc1ccc(O)c(Cl)c1)N/N=C1\C(=O)Nc2ccccc21 [II-42]
5,5.92 µM,CC(C(=O)N/N=C1\C(=O)Nc2ccc(NC(=O)CN3CCOCC3)cc21)c1ccc(F)cc1 (stereo not shown) [Example I-54]
6,0.43 µM,"CC(C(=O)N/N=C1\C(=O)Nc2ccc(C(=O)N3CCC[C@@H]3CN3CCCC3)c(Cl)c21)c1ccc(F)cc1 (stereo partly drawn) [Example I-40, 2-(4-Fluoro-phenyl)-propionic acid [(3Z)-4-chloro-2-oxo-5-[(2R)-(2-pyrrolidin-1-ylmethyl-pyrrolidine-1-carbonyl)]-1,2-dihydro-indol-3-ylidene]-hydrazide]"
7,> 20 µM,"CC(C)(C(=O)N/N=C1\C(=O)Nc2c(Cl)ccc(Cl)c21)c1ccc(Cl)cc1 [II-91, 2-(4-Chloro-phenyl)-2-methyl-propionic acid [(3Z)-4,7-dichloro-2-oxo-1,2-dihydro-indol-3-ylidene]-hydrazide]"
8,0.016 µM,"Cc1ccc(C)c2c1NC(=O)/C2=N\NC(=O)C(C)c1ccc(O)cc1 (stereo not shown) [II-57, 2-(4-Hydroxy-phenyl)-propionic acid [(3Z)-4,7-dimethyl-2-oxo-1,2-dihydro-indol-3-ylidene]-hydrazide]"
9,0.088 µM,"O=C(Cc1ccc(O)cc1)N/N=C1\C(=O)Nc2c(Cl)cc(Cl)cc21 [II-61, (4-Hydroxy-phenyl)-acetic acid [(3Z)-5,7-dichloro-2-oxo-1,2-dihydro-indol-3-ylidene)-hydrazide]"
10,0.022 µM,"O=C(Cc1ccc(O)cc1)N/N=C1\C(=O)Nc2c(Cl)cccc21 [II-36, (4-Hydroxy-phenyl)-acetic acid [(3Z)-7-chloro-2-oxo-1,2-dihydro-indol-3-ylidene]-hydrazide]"
11,11.9 µM,"N#Cc1cc(CC(=O)N/N=C2\C(=O)Nc3ccccc32)ccc1O [II-108, (3-Cyano-4-hydroxy-phenyl)-acetic acid [(3Z)-2-oxo-1,2-dihydro-indol-3-ylidene)-hydrazide]"
12,0.14 µM,"CC(C(=O)N/N=C1\C(=O)Nc2cccc(-c3cccc(F)c3)c21)c1ccc(O)cc1 (stereo not shown) [Example I-16, 2-(4-Hydroxy-phenyl)-propionic acid [(3Z)-4-(3-fluoro-phenyl)-2-oxo-1,2-dihydro-indol-3-ylidene]-hydrazide]"
13,0.058 µM,"O=C(Cc1ccc(O)cc1)N/N=C1\C(=O)Nc2ccc(OC(F)(F)F)cc21 [Example I-17, (4-Hydroxy-phenyl)-acetic acid [(3Z)-2-oxo-5-trifluoromethoxy-1,2-dihydro-indol-3-ylidene]-hydrazide]"
14,5.68 µM,"O=C(Cc1cccc(Cl)c1)N/N=C1\C(=O)Nc2ccccc21 [II-14, (3-Chloro-phenyl)-acetic acid [(3Z)-2-oxo-1,2-dihydro-indol-3-ylidene]-hydrazide]"
15,10.7 µM,"O=C1Nc2ccccc2/C1=N/NC(=O)C(O)c1ccc(O)cc1 (stereo not shown) [Example I-3, Hydroxy-(4-hydroxy-phenyl)-acetic acid [(3Z)-2-oxo-1,2-dihydro-indol-3-ylidene]-hydrazide]"
16,0.024 µM,"O=C(Cc1ccc(O)cc1)N/N=C1\C(=O)Nc2ccc(Br)cc21 [II-20, (4-Hydroxy-phenyl)-acetic acid [(3Z)-5-bromo-2-oxo-1,2-dihydro-indol-3-ylidene]-hydrazide]"
17,0.02 µM,"Cc1cc(C)c2c(c1)/C(=N/NC(=O)Cc1ccc(O)cc1)C(=O)N2 [II-26, (4-Hydroxy-phenyl)-acetic acid [(3Z)-5,7-dimethyl-2-oxo-1,2-dihydro-indol-3-ylidene]-hydrazide]"
18,0.017 µM,"O=C(Cc1ccc(O)cc1)N/N=C1\C(=O)Nc2cc(Cl)ccc21 [II-51, (4-Hydroxy-phenyl)-acetic acid [(3Z)-6-chloro-2-oxo-1,2-dihydro-indol-3-ylidene]-hydrazide]"
